Source: US20140045809A1, “CORROLES FOR NEUROPROTECTION AND NEURORESCUE” (priority 2008, published 2014)
Read-outs that look alike come from different tables or passages of the source.

How the values were obtained:
SH-SY5Y cells [1] = assay type: cell-based; conditions: 24 h
Method: SH-SY5Y cells were cultured in DMEM-Eagle/F-12(HAM) (1:1) containing 10% FCS. Cells were resuspended in medium containing 2% FCS, seeded in microtiter plates (96 wells) and allowed to attach for 24 h. To examine the neuroprotective effect, cells were pretreated for 30 min with corroles 1C-Fe and 5C-Fe (1-20 μM), and were then exposed to 6-OHDA (60 μM) for further 24 h. For neurorescue assessment, SH-SY5Y cells were first treated with 6-OHDA (60 μM) for 0.5 h, 1.5 h, 3 h and 6 h followed by the addition of compounds 1C-Fe and 5C-Fe (10 μM) for further 24 h.
SH-SY5Y cells were pretreated with or without corroles 1C-Fe, 2C-Mn and 3C-Mn and porphyrins 1P-Fe and 2P-Mn (20 μM), 30 min before exposure to 6-OHDA (40 μM) for a subsequent 24 h period. Cell viability was evaluated by MTT test and cell death was assessed using the apoptotic cell death detection ELISA kit. For neurorescue, SH-SY5Y cells were first exposed to 40 μM 6-OHDA for 0.5. 1, 1.5 and 3 h, followed by the addition of the compounds 1C-Fe, 2C-Mn and 3C-Mn (20 μM) and incubated for further 24 h. Growth-associated protein (GAP-43) was detected by fluorescence microscopy using a specific primary antibody. Apoptotic nuclei were determined by terminal deoxynucleotidyl transferase-mediated UTP-digoxigenin nick end labeling analysis. 4′,6-Diamidino-2-phenylnidole (DAPI) staining was applied for nuclear labeling. […]

RIN-m cells [2] = experiment: Protection of RIN-m beta cells against H2O2 toxicity (MTT); assay type: cell-based, rat; conditions: 20 μM, 30 min before 35 μM H2O2, 24 h
Method: Two insulin-secreting beta cell lines, rat insulinoma (INS-1E) and RIN-m cells, were used to examine the protective effect of corrole 1C-Fe. The cells were cultured at 37° C., in a humid 5% CO2, 95% air environment in regular RPMI-1640 medium (Invitrogen) supplemented with 5% fetal calf serum (FCS).
After 2 days of culture, RIN-m cells (5×10^4 cells/well in 96-well plates) were treated with corrole 1C-Fe (1-50 μM) before addition of 35 μM of H2O2. Cell viability was evaluated by a colorimetric assay for mitochondrial function estimation using the MTT test as previously described (Gassen et al., 1998) and expressed as percentage of control.
RIN-m cells were grown as described in Example 5. After 3 days of culture, RIN-m cells (2.5×10^4 cells/well in 96-well plates) were treated with corroles 1C-Fe or 5C-Fe or porphyrin 1P-Fe (1 and 20 μM), added 30 min prior to treatment with 35 μM H2O2 and further incubated for 24 h. Cell injury was evaluated by MTT test. […] […].
Protective effect of iron(III) corrole complexes against H2O2-induced toxicity (150 μM) was compared to that of manganese(III) corroles and related porphyrin. […].

NSC-34 G93A cells = experiment: Cell culture model of familial ALS, NSC-34 cells expressing mutant G93A-SOD1; assay type: cell-based, mouse; conditions: 48 h induction; even at a concentration as low as 0.5 μM
Method: Mutant-superoxide dismutase (G93A-SOD1) is associated with familial amyotrophic lateral sclerosis (FALS). A cell culture model of FALS was implemented by stably transfecting mouse motoneuronal NSC-34 cells or SH-SY5Y cells, to express mutant G93A-SOD1 at levels approximating those seen in the human disease. NSC-34 cells or SH-SY5Y cells were incubated in Dulbecco's modified Eagle's/F-12 medium supplemented with 10% FCS tetracycline-free (FCS Tet-free; Clontech), at 37° C. in an atmosphere of 5% CO2 in air. These cell lines are stably transfected with the pTet-ON plasmid (Clontech, Palo Alto, Calif.) coding for the reverse tetracycline controlled transactivator (rtTA). Induction of mutant SOD1 expression was obtained by shifting nonconfluent cultures into growth medium containing 1% N2 supplement (Invitrogen, Carlsbad, Calif.) and […] doxocyclin for 48 h in the presence or absence of corrole 1C-Fe and 5C-Fe.

RIN-m cells [3] = experiment: Protection of RIN-m cells against SIN-1 toxicity (MTT); assay type: cell-based, rat; conditions: 10 μM, 30 min before SIN-1 (500 or 600 μM), 24 h
Method: (§1) INS-1E cells or RIN-m cells were cultured in RPMI with low serum content (2% FCS), placed in microtiter plates (96 wells) at a density of 2.5×10^4 cells/well and allowed to attach for 24 h before treatment. Corroles 1C-Fe and 5C-Fe (10 μM) were added 30 min prior to insult with the nitric oxide donor SIN-1 (500 or 600 μM) for a subsequent 24 h period. Cell viability was evaluated by a colorimetric assay for mitochondrial function using 3-(4,5-dimethylthiazol-2-yl)-2,5-diphenyltetrazolium bromide (MTT test), and expressed as percentage of untreated control. Values higher than 100% reflect increased mitochondrial activity induced by the drug. The results represent the mean±SEM of three independent experiments performed under the same conditions.
Insulin-secreting RIN-m cells were incubated in RPMI with low serum content (2% FCS) and placed in microtiter plates (96 wells) at a density of 2.5×10^4 cells/well and allowed to attach for 24 h before treatment. Cells were treated with corroles 1C-Fe, 1C-Mn or 2C-Mn or porphyrins 1P-Fe or 2P-Mn, in various concentrations (0.1-20 μM), for 30 min prior to insult with SIN-1 (800 μM) for a subsequent 24 h period. Cell viability was evaluated by MTT test and expressed as percentage of untreated control.

SH-SY5Y cells [4] = experiment: Neuroprotection/neurorescue against SIN-1-induced cell death in SH-SY5Y cells; assay type: cell-based, human; conditions: 24 h (Example 11)
Method: SH-SY5Y cells were cultured in DMEM-Eagle/F-12(HAM) (1:1) containing 10% FCS. Cells were resuspended in medium containing 2% FCS, seeded in microtiter plates (96 wells) and allowed to attach for 24 h before initiation of treatment. […]

INS-1E cells = experiment: Protection of INS-1E cells against SIN-1 toxicity (MTT); assay type: cell-based, rat; conditions: 10 μM, 30 min before SIN-1 (500 or 600 μM), 24 h
Method: as §1

SH-SY5Y cells [5] = assay type: cell-based
Method: Human neuroblastoma cell line was also examined under conditions similar to RIN-m cells to reveal the corrole's ability to prevent neuronal death caused by oxidative stress. SH-SY5Y cells were plated in microtiter plates (96 wells) in DMEM-Eagle/F-12(HAM) (1:1), containing 10% FCS. To examine neuroprotective effect, SH-SY5Y cells were treated for 30 min with corroles 1C-Fe and 5C-Fe (20 and 50 μM) before addition of 20 μM H2O2 for 24 h. To examine neurorescue, SH-SY5Y cells were first exposed to 20 μM H2O2 for 0.5 h, 1.5 h or 3 h, followed by the addition of corroles 1C-Fe and 5C-Fe (20 μM) and incubation for 24 h.
Compounds 1C-Fe and 1P-Fe (1-50 μM) were added 30 min before insult with H2O2 (200 μM), followed by a subsequent 24 h period. The neuroprotective effects of the iron corrole 1C-Fe and its structurally analogous iron porphyrin 1P-Fe, against H2O2-induced neurotoxicity were investigated using MTT reduction assay and cell death ELISA, based on the use of mouse monoclonal antibodies to detect free histones and fragmented DNA (F. Hollderieder et al, Biochemica 2002, 1, 25). […] In light of the observed neuroprotective effect of corrole 1C-Fe, we attempted to determine the length of the delay between H2O2 exposure and corrole 1C-Fe treatment that would still afford neuroprotection. H2O2 was administered to SH-SY5Y cells and corrole 1C-Fe was then added for 0.5-1.5 h thereafter. […]

[6] = test system: nigral dopaminergic neurons; conditions: MPTP model, also given post-MPTP; Gal et al., 2005; cited from earlier work
MAO-A = target: T1, MAO-A (Mus musculus, UniProt Q64133); conditions: Gal et al., 2005, cited from earlier work
T1 construct: host or cells: brain and peripheral organs of treated animals
T1 sequence (Q64133 1-526): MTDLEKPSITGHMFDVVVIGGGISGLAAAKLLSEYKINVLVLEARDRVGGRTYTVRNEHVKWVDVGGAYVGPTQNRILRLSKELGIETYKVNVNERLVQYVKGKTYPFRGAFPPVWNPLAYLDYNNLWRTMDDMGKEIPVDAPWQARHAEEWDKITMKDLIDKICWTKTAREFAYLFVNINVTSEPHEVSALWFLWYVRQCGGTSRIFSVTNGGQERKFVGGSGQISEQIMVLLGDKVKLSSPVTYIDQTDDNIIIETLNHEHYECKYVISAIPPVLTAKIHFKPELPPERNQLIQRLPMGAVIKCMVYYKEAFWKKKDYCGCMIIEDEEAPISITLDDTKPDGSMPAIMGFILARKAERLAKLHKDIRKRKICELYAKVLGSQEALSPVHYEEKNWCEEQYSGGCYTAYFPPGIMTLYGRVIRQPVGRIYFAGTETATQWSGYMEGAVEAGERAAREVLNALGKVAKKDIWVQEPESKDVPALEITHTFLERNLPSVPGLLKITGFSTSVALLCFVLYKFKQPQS

MAO-B = target: T2, MAO-B (Mus musculus, UniProt Q8BW75); conditions: Gal et al., 2005, cited from earlier work
T2 construct: host or cells: brain and peripheral organs of treated animals
T2 sequence (Q8BW75 1-520): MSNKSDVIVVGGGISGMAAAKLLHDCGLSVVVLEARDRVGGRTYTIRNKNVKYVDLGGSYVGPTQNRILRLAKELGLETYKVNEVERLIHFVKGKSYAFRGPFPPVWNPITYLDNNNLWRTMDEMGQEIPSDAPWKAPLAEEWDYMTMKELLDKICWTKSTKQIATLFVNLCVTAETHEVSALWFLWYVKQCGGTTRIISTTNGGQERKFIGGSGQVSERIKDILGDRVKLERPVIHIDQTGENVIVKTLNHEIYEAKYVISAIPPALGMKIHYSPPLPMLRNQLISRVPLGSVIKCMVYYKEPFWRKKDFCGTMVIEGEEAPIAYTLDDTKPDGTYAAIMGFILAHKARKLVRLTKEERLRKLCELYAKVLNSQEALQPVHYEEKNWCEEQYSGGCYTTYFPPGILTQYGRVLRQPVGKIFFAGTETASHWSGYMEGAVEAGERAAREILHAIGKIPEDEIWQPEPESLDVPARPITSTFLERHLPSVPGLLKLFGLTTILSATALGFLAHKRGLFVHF

Row | Compound | neuroprotective effect against 6-OHDA-induced toxicity (SH-SY5Y cells [1]; 1-20 μM, 30 min before 6-OHDA (60 μM)) | neurorescue after 6-OHDA insult (SH-SY5Y cells [1]; 6-OHDA (60 μM) for 0.5, 1.5, 3 and 6 h, then 10 μM) | protective effect against H2O2 toxicity relative to porphyrin 1P-Fe (MTT) (RIN-m cells [2]) | cell viability of induced mutant cells (NSC-34 G93A cells) | protective effect against SIN-1 induced toxicity (MTT) (RIN-m cells [3]) | neurorescue after SIN-1 insult (SH-SY5Y cells [4]; 20 μM added 0.5, 1.5 or 3 h after insult) | neuroprotective effect against SIN-1 induced toxicity (SH-SY5Y cells [4]; 10 and 20 μM, 30 min pretreatment) | protective effect against SIN-1 induced toxicity (MTT) (INS-1E cells) | neurorescue after H2O2 insult (SH-SY5Y cells [5]; 20 μM H2O2 for 0.5, 1.5 or 3 h, then 20 μM corrole, 24 h) | neuroprotective effect against H2O2-induced toxicity (SH-SY5Y cells [5]; 20 and 50 μM, 30 min before 20 μM H2O2, 24 h) | neuroprotection and restoration of nigral dopaminergic neurons [6] | MAO-A inhibition (MAO-A; in peripheral organs) | MAO-A inhibition (MAO-A; in the brain) | MAO-B inhibition (MAO-B; in peripheral organs) | MAO-B inhibition (MAO-B; in the brain)
1 | O=C(O)CNS(=O)(=O)c1cc2[n]3c1C(c1c(F)c(F)c(F)c(F)c1F)=C1C=CC4=[N+]1[Fe-]31[n]3c(cc(S(=O)(=O)NCC(=O)O)c3-2)C(c2c(F)c(F)c(F)c(F)c2F)=c2ccc([n]21)=C4c1c(F)c(F)c(F)c(F)c1F (stereo not shown) [5C-Fe, 2,17-bis(N-sulfonylglycine)-5,10,15-tris(pentafluoro-phenyl)-corrolato iron(III)] | dose-dependent neuroprotective effect | instigated neurorescue | exhibit a greater protective effect | significantly improved cell viability | marked protective effect | instigated neurorescue | dose-dependent neuroprotective effect | marked protective effect | instigated neurorescue | dose-dependent neuroprotective effect | – | – | – | – | –
2 | C#CCN(C)Cc1ccc(O)c2ncccc12 [M-30] | – | – | – | – | – | – | – | – | – | – | neuroprotective and also have the ability to restore nigral dopaminergic neurons when given post-MPTP | poorly | potently inhibits | poorly | potently inhibits
3 | C#CCN[C@@H]1CCc2ccccc21 [rasagiline] | – | – | – | – | – | – | – | – | – | – | neuroprotective and also have the ability to restore nigral dopaminergic neurons when given post-MPTP | – | – | – | –
